Article PMC7434893 (British Journal of Cancer, 2020)

Columns and labels:
[1] = Plasma and urine pharmacokinetics, dose-escalation cohorts; assay type: in vivo, human; conditions: for AUC(0-inf) / AUC(0–24) / Ae, amount of drug dose excreted in urine / CLR / Cav,ss / Cmax / fe, fraction of dose excreted in urine / t1/2 / AUC(0-t): mean (SD); for tmax: median (min, max)
Experimental: Blood samples were also collected immediately before the dose on day 7 of cycle 1, days 1 and 15 of cycle 2 and on day 1 of cycle 3, and beyond. All urine produced during the time intervals pre-dose, 0–2 h, 2–4 h, 4–10 h and 10–24 h following the single dose on day –2, and after multiple doses on cycle 1, day 15, was collected.

[2] = system: sIL-2Rα/CD25; assay: Serum biomarker analysis, sIL-2Rα; assay type: in vivo, human; conditions: from 48 h onwards, all dose groups
Experimental: Two pre-dose, multiple post-dose and off-treatment time points were included. Serum samples were tested for concentrations of soluble vascular endothelial growth factor receptor (VEGFR)2, VEGFR3 and soluble interleukin-2 receptor α (sIL-2Rα/CD25), using the bead-based Human Soluble Cytokine Receptor Panel assay kit. The two baseline samples (days −3 and −2 prior to dosing) were averaged, and the mean was used to calculate percent change at each of the post-dosing time points.

[3] = system: MDA-MB-436; assay: 8-day growth inhibition; assay type: cell-based; conditions: Breast, MDA-MB-436, 8-day assay
[4] = system: M14; assay: 8-day growth inhibition; assay type: cell-based; conditions: Melanoma, M14, 8-day assay
[5] = system: ECC-1; assay: 8-day growth inhibition; assay type: cell-based; conditions: Endometrial, ECC-1, 8-day assay
[6] = system: HEC-50B; assay: 8-day growth inhibition; assay type: cell-based; conditions: Endometrial, 8-day assay
[7] = system: HEC-265; assay: 8-day growth inhibition; assay type: cell-based; conditions: Endometrial, HEC-265, 8-day assay
[8] = system: NCI-H1694; assay: 8-day growth inhibition; assay type: cell-based; conditions: SCLC, NCI-H1694, 8-day assay
[9] = system: NCI-H446; assay: 8-day growth inhibition; assay type: cell-based; conditions: SCLC, NCI-H446, 8-day assay
[10] = system: SR; assay: 8-day growth inhibition; assay type: cell-based; conditions: B cell lymphoma, 8-day assay
[11] = system: Toledo; assay: 8-day growth inhibition; assay type: cell-based; conditions: DLBCL (GC), 8-day assay
[12] = system: NCEB-1; assay: 8-day growth inhibition; assay type: cell-based; conditions: MCL, NCEB-1, 8-day assay
[13] = system: THP-1; assay: 8-day growth inhibition; assay type: cell-based; conditions: AML, THP-1, 8-day assay
[14] = 50 mg once daily, cycle 1 day 15, steady state
[15] = 100 mg once daily, cycle 1 day 15, steady state
[16] = 200 mg once daily, cycle 1 day 15, steady state
[17] = 400 mg once daily, cycle 1 day 15, steady state
[18] = 600 mg once daily, cycle 1 day 15, steady state
[19] = 800 mg once daily, cycle 1 day 15, steady state

## O=c1[nH]nc2c3c(cccc13)N=C(CN1Cc3ccccc3C1)N2 [E7449]
[1]; [14]
  AUC(0-inf): 634 (n = 1) ng·h/mL
  AUC(0–24): 714 (193) ng·h/mL
  Ae, amount of drug dose excreted in urine: 0.19 (0.00) (n = 2) mg
  CLR: 0.3 (0.01) (n = 2) L/h
  Cav,ss: 29.7 (8.03) ng/mL
  Cmax: 264 (227) ng/mL
  fe, fraction of dose excreted in urine: 0.39 (0.01) (n = 2) %
  t1/2: 9.04 (n = 1) h
  tmax: 1.00 (0.5, 2.00) h
[1]; 50 mg, day –2 single dose
  AUC(0-inf): 770 (n = 1) ng·h/mL
  AUC(0-t): 603 (213) ng·h/mL
  AUC(0–24): 768 (n = 1) ng·h/mL
  Ae, amount of drug dose excreted in urine: 0.11 (0.06) (n = 2) mg
  Cmax: 265 (99.8) ng/mL
  fe, fraction of dose excreted in urine: 0.22 (0.13) (n = 2) %
  t1/2: 3.42 (n = 1) h
  tmax: 2.00 (0.58, 2.03) h
[1]; [15]
  AUC(0-inf): 1150 (266) ng·h/mL
  AUC(0–24): 1100 (244) ng·h/mL
  Ae, amount of drug dose excreted in urine: 0.70 (n = 1) mg
  CLR: 0.5 (n = 1) L/h
  Cav,ss: 45.8 (10.2) ng/mL
  Cmax: 404 (175) ng/mL
  fe, fraction of dose excreted in urine: 0.70 (n = 1) %
  t1/2: 8.92 (2.50) h
  tmax: 3.00 (1.00, 4.00) h
[1]; 100 mg, day –2 single dose
  AUC(0-inf): 895 (99.8) ng·h/mL
  AUC(0-t): 879 (104) ng·h/mL
  AUC(0–24): 879 (104) ng·h/mL
  Ae, amount of drug dose excreted in urine: 0.47 (n = 1) mg
  CLR: 0.5 (n = 1) L/h
  Cmax: 284 (112) ng/mL
  fe, fraction of dose excreted in urine: 0.47 (n = 1) %
  t1/2: 6.35 (3.36) h
  tmax: 2.05 (1.08, 3.00) h
[1]; [16]
  AUC(0-inf): 2670 (1510) (n = 2) ng·h/mL
  AUC(0–24): 3690 (2230) ng·h/mL
  Ae, amount of drug dose excreted in urine: 1.11 (0.33) mg
  CLR: 0.5 (0.4) L/h
  Cav,ss: 154 (93.1) ng/mL
  Cmax: 1430 (1080) ng/mL
  fe, fraction of dose excreted in urine: 0.55 (0.17) %
  t1/2: 9.19 (4.83) (n = 2) h
  tmax: 1.00 (1.00, 2.00) h
[1]; 200 mg, day –2 single dose
  AUC(0-inf): 3320 (1790) (n = 2) ng·h/mL
  AUC(0-t): 3780 (1180) ng·h/mL
  AUC(0–24): 3670 (1170) ng·h/mL
  Ae, amount of drug dose excreted in urine: 0.70 (0.60) (n = 3) mg
  CLR: 0.2 (0.15) (n = 3) L/h
  Cmax: 996 (676) ng/mL
  fe, fraction of dose excreted in urine: 0.34 (0.29) (n = 3) %
  t1/2: 7.08 (1.16) (n = 2) h
  tmax: 3.10 (1.03, 4.18) h
[1]; [17]
  AUC(0-inf): 3240 (820) (n = 2) ng·h/mL
  AUC(0–24): 4730 (2730) ng·h/mL
  Ae, amount of drug dose excreted in urine: 2.05 (1.09) mg
  CLR: 0.4 (0.14) L/h
  Cav,ss: 197 (114) ng/mL
  Cmax: 1130 (1030) ng/mL
  fe, fraction of dose excreted in urine: 0.51 (0.27) %
  t1/2: 4.16 (1.72) (n = 2) h
  tmax: 4.00 (0.5, 4.00) h
[1]; 400 mg, day –2 single dose
  AUC(0-inf): 4800 (3000) (n = 3) ng·h/mL
  AUC(0-t): 4800 (2450) ng·h/mL
  AUC(0–24): 4690 (2400) ng·h/mL
  Ae, amount of drug dose excreted in urine: 2.77 (1.82) mg
  CLR: 0.6 (0.34) L/h
  Cmax: 999 (619) ng/mL
  fe, fraction of dose excreted in urine: 0.69 (0.45) %
  t1/2: 8.62 (0.54) (n = 3) h
  tmax: 2.04 (1.03, 4.05) h
[1]; [18]
  AUC(0-inf): 9660 (4550) (n = 4) ng·h/mL
  AUC(0–24): 7900 (4730) ng·h/mL
  Ae, amount of drug dose excreted in urine: 2.25 (1.28) mg
  CLR: 0.3 (0.12) L/h
  Cav,ss: 329 (198) ng/mL
  Cmax: 2230 (1570) ng/mL
  fe, fraction of dose excreted in urine: 0.38 (0.21) %
  t1/2: 5.05 (1.76) (n = 4) h
  tmax: 1.14 (0.50, 4.05) h
[1]; 600 mg, day –2 single dose
  AUC(0-inf): 10,700 (5040) (n = 4) ng·h/mL
  AUC(0-t): 8120 (4990) ng·h/mL
  AUC(0–24): 7930 (4990) ng·h/mL
  Ae, amount of drug dose excreted in urine: 2.90 (0.51) mg
  CLR: 5.0 (13.0) L/h
  Cmax: 2250 (1330) ng/mL
  fe, fraction of dose excreted in urine: 0.48 (0.09) %
  t1/2: 7.17 (2.98) (n = 4) h
  tmax: 2.12 (0.50, 24.3) h
[1]; [19]
  AUC(0-inf): 12,000 (5910) (n = 4) ng·h/mL
  AUC(0–24): 12,400 (5230) ng·h/mL
  Ae, amount of drug dose excreted in urine: 4.70 (2.91) mg
  CLR: 0.5 (0.34) L/h
  Cav,ss: 516 (218) ng/mL
  Cmax: 4120 (2160) ng/mL
  fe, fraction of dose excreted in urine: 0.68 (0.47) %
  t1/2: 6.44 (1.56) (n = 4) h
  tmax: 0.50 (0.0, 1.97) h
[1]; 800 mg, day –2 single dose
  AUC(0-inf): 12,900 (3350) (n = 4) ng·h/mL
  AUC(0-t): 11,500 (3370) ng·h/mL
  AUC(0–24): 11,300 (3230) ng·h/mL
  Ae, amount of drug dose excreted in urine: 4.00 (1.73) mg
  CLR: 0.4 (0.12) L/h
  Cmax: 4430 (2470) ng/mL
  fe, fraction of dose excreted in urine: 0.50 (0.22) %
  t1/2: 9.45 (2.42) (n = 4) h
  tmax: 0.79 (0.50, 2.00) h
[1]; across doses
  Drug dose excreted unchanged in urine: Less than 1.5%
  Elimination half-life, t1/2: approximately 8 h
[2]
  sIL-2Rα change above baseline: up to 150%
[3]
  IC50: 0.19 µM
[4]
  IC50: 6.7 µM
[5]
  IC50: 0.68 µM
[6]
  IC50: 3.45 µM
[7]
  IC50: 2.4 µM
[8]
  IC50: 2.47 µM
[9]
  IC50: 0.61 µM
[10]
  IC50: 0.26 µM
[11]
  IC50: 1.6 µM
[12]
  IC50: 5.3 µM
[13]
  IC50: 5.4 µM
